Measurements: US20240108598A1, “Danegaptide for Use in the Treatment or Prevention of a Kidney Disease” (CIANA THERAPEUTICS APS, priority 2021, published 2024)

Key:
HK2 cells = test: Crystal violet assay; format: cell-based, human; settings: 48 h
Protocol: HK2 cells were cultured in low glucose (5 mM) for 48 h, prior to being serum-starved overnight and subsequently treated with TGFβ1 (10 ng/mL)±danegaptide (50 nM-1 μM) for 48 h (FIG. 1A, n=3).
This simple assay was used to measure the relative density of adhered cells to multi-well dishes. Crystal Violet stains DNA and can be quantified colourmetrically after solubilisation. HK2 cells were seeded in 12-well plates and cultured in low glucose DMEM/F12 (5 mM) for 48 h, prior to overnight serum-starvation, then subsequently stimulated for 48 h with TGFβ1 (10 ng/ml)±danegaptide (50-1000 nM). The assay has been described previously (Hills, C. E.; Jin, T.; Siamantouras, E.; Liulssac, I. K. K.; Jefferson, K. P.; Squires, P. E. “Special K” and a Loss of Cell-To-Cell Adhesion in Proximal Tubule-Derived Epithelial Cells: Modulation of the Adherens Junction Complex by Ketamine. PLoS One 2013, 8, e71819). Briefly, cells were fixed using paraformaldehyde for 10 mins, washed with PBS and incubated for 10 mins at RT in a 1% crystal violet solution. After several more washes, the stain was solubilised using 1% SDS, and absorbance measured by a plate reader.

primary hPTECs = test: Western blotting of extracellular matrix proteins; format: cell-based, human; settings: 48 h
Protocol: Primary hPTECs were cultured in low (5 mM) glucose±TGFβ1 (10 ng/mL)±danegaptide (100 nM) for 48 h. In panel A, expression of the ECM proteins collagen I (Col1), collagen IV (Col4), fibronectin (Fibro), and Laminin (panel B) were assessed via western blotting. […] Danegaptide partially reversed the TGFβ1 evoked change in Integrin Linked Kinase 1 (ILK1; ▴▴▴P<0.001) but had negligible effect on Matrix Metalloproteinase 3 (MMP3). All bars correspond mean±SEM, (n=3) and representative blots are shown with expression normalised by re-probing for α-tubulin as a loading control.
To determine if danegaptide can negate TGFβ1-mediated changes in adherens and tight junction proteins, hPTECs were incubated with TGFβ1 (10 ng/mL)±danegaptide (100 nM) for 48 h and expression of candidate proteins assessed by Western blotting. Preparation of cytosolic protein from HK2 and HPTEC cells, their separation by SDS-gel electrophoresis and transfer onto Immobilon-FI PVDF membranes have been described previously (Price, G. W.; Chadjichristos, C. E.; Kavvadas, P.; Tang, S. C. W.; Yiu, W. H.; Green, C. R.; Potter, J. A.; Siamantouras, E.; Squires, P. E.; Hills, C. E. Blocking Connexin-43 mediated hemichannel activity protects against early tubular injury in experimental chronic kidney disease. Cell Commun. Signal. 2020, 18). Membranes were blocked using Odyssey blocking buffer (LI-COR), then probed overnight with antibodies against E-cadherin (1:1000), N-cadherin (1:1000), claudin-2 (1:500) and ZO-1 (1:1000), Col I (1:1000), Col IV (1:2000), Fibronectin (1:4000), Laminin (1:500), ILK1 (1:500), beta-catenin (1:2000), Vimentin (1:500), MMP3 (1:500). Bands were visualised using an OdysseyFC and semi-quantified using ImageStudio (v5.2, LI-COR). Additionally, transepithelial electrical resistance (TER) was measured as a functional measure of epithelial cell-cell coupling and paracellular permeability.
To examine the effect of danegaptide on TGFβ1-evoked changes in expression of ECM proteins, hPTEC cells were cultured in low (5 mM) glucose for 48 h, serum starved overnight and treated with TGFβ1 (10 ng/mL)±danegaptide (100 nM) for 48 h. Expression of the ECM proteins collagen I, collagen IV, fibronectin, Laminin, Integrin Linked Kinase 1, and Matrix Metalloproteinase 3 were assessed via western blotting.

[1] = TGFβ1 10 ng/mL + danegaptide 100 nM

Compound | crystal violet staining, of control (HK2 cells; TGFβ1 10 ng/mL + danegaptide 50 nM) [%] | crystal violet staining, of control (HK2 cells; [1]) [%] | crystal violet staining, of control (HK2 cells; TGFβ1 10 ng/mL + danegaptide 1 μM) [%] | crystal violet staining, of control (HK2 cells; danegaptide alone 50 nM) [%] | crystal violet staining, of control (HK2 cells; danegaptide alone 100 nM) [%] | crystal violet staining, of control (HK2 cells; danegaptide alone 1 μM) [%] | Integrin Linked Kinase 1 (ILK1) expression, compared to control (primary hPTECs; [1]) [%] | Matrix Metalloproteinase 3 (MMP3) expression, compared to control (primary hPTECs; [1]) [%] | collagen I expression, compared to control (primary hPTECs; [1]) [%] | collagen IV expression, compared to control (primary hPTECs; [1]) [%] | fibronectin expression, compared to control (primary hPTECs; [1]) [%] | laminin expression, compared to control (primary hPTECs; [1]) [%] | Integrin Linked Kinase 1 (ILK1) expression, compared to control (primary hPTECs; TGFβ1 10 ng/mL alone) [%] | Matrix Metalloproteinase 3 (MMP3) expression, compared to control (primary hPTECs; TGFβ1 10 ng/mL alone) [%] | collagen I expression, compared to control (primary hPTECs; TGFβ1 10 ng/mL alone) [%] | collagen IV expression, compared to control (primary hPTECs; TGFβ1 10 ng/mL alone) [%] | fibronectin expression, compared to control (primary hPTECs; TGFβ1 10 ng/mL alone) [%] | laminin expression, compared to control (primary hPTECs; TGFβ1 10 ng/mL alone) [%]
NCC(=O)N1C[C@H](NC(=O)c2ccccc2)C[C@H]1C(=O)O [danegaptide, (2S,4R)-1-(2-aminoacetyl)-4-benzamidopyrrolidine2-carboxylic acid] | 98.2±1.9 | 97.5±1.8 | 85.8±5.3 | 98.3±2.5 | 99.6±2.7 | 98.5±2.2 | 251.8±33 | 147.1±12.2 | 180.7±27.3 | 164.2±6.9 | 161.3±4 | 149±20.4 |  |  |  |  |  | 
TGFβ1: Recombinant hTGFβ1 (Sigma); pro-fibrotic cytokine used to stimulate the cells [reference compound] |  |  |  |  |  |  |  |  |  |  |  |  | 378.9±16.8 | 185.3±19.6 | 334.6±30.14 | 354.5±16.9 | 301.7±50.4 | 324.8±36.4
